# According to US20250109120A1, “INDOLINE DERIVATIVES FOR TREATMENT AND/OR PREVENTION OF TUMOR OR CELL PROLIFERATIVE AND FIBROSIS DISEASES” (NATIONAL TAIWAN UNIVERSITY, priority 2023, published 2025):
# Columns and labels:
# DU145 cells [1] = assay: TGF-β1-induced morphology change and wound migration; format: cell-based, human; conditions: TGF-β1 10 ng/mL
# Method: Images of the morphology of cells were taken at ×100 magnification. […] The cells were incubated with or without TGF-β1 (10 ng/mL) and compound k (2.5 and 10 μM), allowed to migrate into the wound area for 48 h and photographed. Cell migration into the wound was quantified using ImageJ software; the white solid line indicates time zero. The quantitative assessment of the mean number of cells in the scratch area is expressed as the mean t SEM from at least three independent experiments (***p<0.001 vs. control group; ##p<0.01 and ###p<0.001 vs. TGF-β1 treatment group). (C) PC-3 cells were incubated with 10 μM compound k/senexin A for 1 h, subsequently treated with TGF-β1 (10 ng/mL) for 24 h and incubated with the indicated antibodies and DAPI. The immunofluorescence images were photographed by a ZEISS ApoTome.2 microscope. Images were taken at 600× magnification.
# CDK8 = CDK8 (Homo sapiens (Human), UniProt P49336); assay: LanthaScreen Eu Binding Assay, Thermo Fisher SelectScreen kinase service
# Method: Compounds were tested for kinase inhibitory activity using the Thermo Fisher SelectScreen service (www.thermofisher.com/selectscreen). For CDK8, the LanthaScreen Eu Binding Assay was used. Briefly, the assay employed utilizes a fluorescent tracer to a given kinase. This is used to detect the addition of an anti-tag antibody. When the tracer and antibody bind to the targeted kinase, the Forster resonance energy transfer is measured. When a kinase inhibitor is added to the assay, the tracer/kinase binding will be disrupted, producing low FRET detection and indicating kinase inhibitory activity. Evaluation of kinase activity of additional kinase targets utilized the LanthaScreen binding assay or the Z′-Lyte activity assay provided by Thermo Fisher SelectScreen service. The IC50 values were determined using sequential doses, and the inhibition curves were provided by Thermo Fisher Scientific.
# The fragment-based drug design strategy in this study led to optimized CDK8 inhibitors with promising results. CDK8-inhibitory activities of the compounds (a-n) designed by this fragment-based drug design strategy were tested using the SelectScreen kinase service of ThermoFisher Scientific. The inhibitory effects of the 14 compounds and the referenced compound were tested at a concentration of 10 μM.
# PC-3 cells [2] = assay: β-catenin target protein expression, western blot; format: cell-based, human; conditions: 24 h
# Method: Inhibitory phosphorylation of GSK3β was evaluated through western blotting. […] Whole-cell lysates were subjected to western blotting with the indicated antibodies. FIGS. 11J-11K show the comparison of basal activities of the Akt/GSK3β axis between PC-3 and DU145 cells. […] The results are shown as the mean±SEM from at least three independent experiments (*p<0.05, **p<0.01, ***p<0.001 vs. control group; #p<0.05, ##p<0.01, and ###p<0.001 vs. relevant control).
# The cells were incubated in lysis buffer for 10 min at 4° C., scraped off, incubated on ice for an additional 10 min and then centrifuged at 17,000 g for 30 min at 4° C. Protein samples were electrophoresed on SDS-PAGE gels, transferred to PVDF membranes and blocked with 5% fat-free milk in PBS for 30 min at room temperature. Immunoblotting was performed overnight with primary antibodies in PBS at 4° C., followed by incubation with HRP-conjugated secondary antibodies for 1 h at room temperature. Bound antibodies will be measured using an ECL reagent and exposed to a photographic film. In the immunoprecipitation assay, cell lysates were immunoprecipitated with 1 μg of antibody and A/G agarose beads overnight at 4° C. After washing the precipitated beads three times with 1 mL ice-cold cell lysis buffer, bound immune complexes were separated by 10% SDS-PAGE and analyzed with immunoblotting.
# PC-3 cells [3] = assay: MTT cell cytotoxicity assay; format: cell-based, human
# Method: (§1) FIGS. 2A-2D show the evaluation of CDK8 inhibition by compound k. […] Cell viability was measured by MTT assay, and the 50% inhibitory concentration (IC50) values were calculated by a sigmoidal dose-response equation. […] Whole-cell lysates were subjected to western blotting with the indicated antibodies. The results are shown as the mean t SEM from at least three independent experiments (*p<0.05, **p<0.01, and ***p<0.001 vs. control group; #p<0.05 vs. relevant control).
# (§2) Cell cytotoxicity was evaluated using the MTT assay. […] Then, 0.5 mg/mL MTT was added, and the plates were incubated for an additional 2 h at 37° C. The cells were then pelleted and lysed in 100 μL of dimethyl sulfoxide, and the absorbance at 550 nm was measured with a microplate reader.
# DU145 cells [4] = assay: MTT cell cytotoxicity assay; format: cell-based, human
# Method: as §1, §2
# A549 cells = assay: TGF-β1-induced oxidative stress (MDA, Nox4); format: cell-based, human; conditions: compounds 2 μM, TGF-β1 10 ng/ml 24 h
# Method: A549 cells were incubated with compounds k, b, a (2 μM), senexin A (5 μM), or pirfenidone (1 mM) for 1 h, followed by treatment with 10 ng/ml TGF-β1 for a further 24 h. Malondialdehyde (MDA) (FIG. 10A) and Nox4 (FIG. 10B) levels were detected. ***p<0.001 compared to the control group; #p<0.05, ##p<0.01, and ###p<0.001 compared to the TGF-β1-treated group.
# An end product of lipid peroxidation, malondialdehyde (MDA), was measured by spectrophotometry at a wavelength of 532 nm using malondialdehyde bis(dimethyl acetal) as the standard as per the assay protocol (Cell Biolabs, USA).
# CDK8, sequence (P49336 whole entry, looked up): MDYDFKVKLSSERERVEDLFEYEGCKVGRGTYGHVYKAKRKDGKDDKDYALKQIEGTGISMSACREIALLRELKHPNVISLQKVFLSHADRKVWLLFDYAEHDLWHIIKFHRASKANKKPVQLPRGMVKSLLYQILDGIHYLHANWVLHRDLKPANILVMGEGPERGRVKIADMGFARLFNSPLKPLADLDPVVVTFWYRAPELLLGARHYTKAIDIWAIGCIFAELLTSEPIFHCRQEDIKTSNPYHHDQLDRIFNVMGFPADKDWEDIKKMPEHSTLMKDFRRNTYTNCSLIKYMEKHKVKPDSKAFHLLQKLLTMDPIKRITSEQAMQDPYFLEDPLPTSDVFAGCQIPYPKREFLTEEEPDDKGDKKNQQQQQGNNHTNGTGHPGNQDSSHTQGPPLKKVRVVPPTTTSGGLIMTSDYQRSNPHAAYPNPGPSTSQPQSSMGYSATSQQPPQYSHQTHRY
# CDK8, sequence (P24863 whole entry partner, looked up): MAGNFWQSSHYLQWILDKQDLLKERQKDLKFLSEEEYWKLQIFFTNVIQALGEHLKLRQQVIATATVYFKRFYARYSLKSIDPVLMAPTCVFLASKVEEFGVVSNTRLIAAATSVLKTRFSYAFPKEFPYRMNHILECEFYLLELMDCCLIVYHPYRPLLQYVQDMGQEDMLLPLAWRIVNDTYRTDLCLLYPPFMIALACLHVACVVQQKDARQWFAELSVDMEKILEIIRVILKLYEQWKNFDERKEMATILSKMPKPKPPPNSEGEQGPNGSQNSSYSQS
smiles,measurement,setting,value
"CNC(=O)c1cc(Oc2ccc(NS(=O)(=O)c3ccc4c(c3)C(=C(C)C)C(=O)N4)c(F)c2)ccn1 [Compound k, 4-(3-Fluoro-4-((2-oxo-3-(propan-2-ylidene)indoline)-5-sulfonamido)phenoxy)-N-methylpicolinamide]",TGF-β1-induced migration (wound closure),"DU145 cells [1]; 2.5 and 10 μM, 48 h",significantly inhibited
same,TGF-β1-induced morphological transition,DU145 cells [1]; 24 h,appeared to reverse these effects
same,CDK8 inhibition percentage,"CDK8; 150 nM, 54-kinase panel",64%
same,CDK8 Inhibition percentage at 10 μM,CDK8; 10 μM,102%
same,IC50,CDK8; read-out: Inhibition of CDK8 IC50,0.129 µM
same,higher inhibitory potency compared to compound j,CDK8; vs compound j,~1.5 fold
same,increase in CDK8 inhibitory activity compared to E966-0530,CDK8; vs original compound E966-0530,13 fold
same,Snail expression,PC-3 cells [2],markedly inhibited
same,IC50,"PC-3 cells [3]; PC-3, 24 h",> 30 µM
same,IC50,"PC-3 cells [3]; PC-3, 72 h",> 30 µM
same,IC50,"DU145 cells [4]; DU145, 24 h",> 30 µM
same,IC50,"DU145 cells [4]; DU145, 72 h",> 30 µM
same,TGF-β1-caused oxidative stress (MDA and Nox4 levels),A549 cells,markedly reduced
